# Data as given in ChEMBL document CHEMBL1201862, “PubChem BioAssay data set” (2004).
#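 Dose response: 5 concentrations. Exposure: 48 h. Format: 96-well plates. Endpoint: linear interpolation; highest concentration if not reached. Abbreviation: GI50, concentration required for 50% inhibition of growth.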 Activity calls are given as the source filed them. Rule as the data show it: active = GI50 up to about 1.1 µM and inactive = higher.
# Legend:
# Experiment in all cases: inhibition of tumour cell growth, NCI panel, 48 h
# 786-0 = test system: 786-0
# A498 = test system: A498
# A549 = test system: A549
# CAKI-1 = test system: CAKI-1
# CCRF-CEM = test system: CCRF-CEM
# COLO 205 = test system: COLO 205
# DLD-1 = test system: DLD-1
# DMS-114 = test system: DMS-114
# DMS-273 = test system: DMS-273
# EKVX = test system: EKVX
# HCC 2998 = test system: HCC 2998
# HCT-116 = test system: HCT-116
# HL-60 = test system: HL-60
# HOP-18 = test system: HOP-18
# HOP-62 = test system: HOP-62
# HOP-92 = test system: HOP-92
# IGROV-1 = test system: IGROV-1
# K562 = test system: K562
# KM-20L2 = test system: KM-20L2
# KM12 = test system: KM12
# LOX IMVI = test system: LOX IMVI
# LXFL 529 = test system: LXFL 529
# M14 = test system: M14
# M19-MEL = test system: M19-MEL
# MOLT-4 = test system: MOLT-4
# Malme-3M = test system: Malme-3M
# NCI-H226 = test system: NCI-H226
# NCI-H23 = test system: NCI-H23
# NCI-H460 = test system: NCI-H460
# NCI-H522 = test system: NCI-H522
# OVCAR-3 = test system: OVCAR-3
# OVCAR-4 = test system: OVCAR-4
# OVCAR-5 = test system: OVCAR-5
# OVCAR-8 = test system: OVCAR-8
# RPMI-8226 = test system: RPMI-8226
# RXF 393 = test system: RXF 393
# SF-268 = test system: SF-268
# SF-295 = test system: SF-295
# SF-539 = test system: SF-539
# SK-MEL-28 = test system: SK-MEL-28
# SK-MEL-2 = test system: SK-MEL-2
# SK-MEL-5 = test system: SK-MEL-5
# SK-OV-3 = test system: SK-OV-3
# SN12C = test system: SN12C
# SNB-19 = test system: SNB-19
# SNB-75 = test system: SNB-75
# SNB-78 = test system: SNB-78
# SW-620 = test system: SW-620
# TK-10 = test system: TK-10
# U-251 = test system: U-251
# UACC-257 = test system: UACC-257
# UACC-62 = test system: UACC-62
# UO-31 = test system: UO-31
# XF498 = test system: XF498
# ACHN = test system: ACHN
# HT-29 = test system: HT-29
# HCT-15 = test system: HCT-15
# RXF 631 = test system: RXF 631
# SR = test system: SR
compound,measurement,setting,value
CCOC(=O)C1=C(NC)OC/C1=N\NC(=O)c1ccccc1O,GI50,786-0,33.4 µM (inactive)
same,GI50,A498,> 100 µM (inactive)
same,GI50,A549,32.1 µM (inactive)
same,GI50,CAKI-1,17.1 µM (inactive)
same,GI50,CCRF-CEM,14.9 µM (inactive)
same,GI50,COLO 205,> 100 µM (inactive)
same,GI50,DLD-1,17.6 µM (inactive)
same,GI50,DMS-114,20.7 µM (inactive)
same,GI50,DMS-273,23.1 µM (inactive)
same,GI50,EKVX,44.6 µM (inactive)
same,GI50,HCC 2998,25.1 µM (inactive)
same,GI50,HCT-116,9.29 µM (inactive)
same,GI50,HL-60,19.3 µM (inactive)
same,GI50,HOP-18,14.8 µM (inactive)
same,GI50,HOP-62,28 µM (inactive)
same,GI50,HOP-92,26.1 µM (inactive)
same,GI50,IGROV-1,7.21 µM (inactive)
same,GI50,K562,18.6 µM (inactive)
same,GI50,KM-20L2,39.7 µM (inactive)
same,GI50,KM12,53.2 µM (inactive)
same,GI50,LOX IMVI,15.2 µM (inactive)
same,GI50,LXFL 529,39.8 µM (inactive)
same,GI50,M14,22.5 µM (inactive)
same,GI50,M19-MEL,29.9 µM (inactive)
same,GI50,MOLT-4,22.9 µM (inactive)
same,GI50,Malme-3M,26.9 µM (inactive)
same,GI50,NCI-H226,13.3 µM (inactive)
same,GI50,NCI-H23,6.87 µM (inactive)
same,GI50,NCI-H460,28.2 µM (inactive)
same,GI50,NCI-H522,9.31 µM (inactive)
same,GI50,OVCAR-3,19.9 µM (inactive)
same,GI50,OVCAR-4,16.3 µM (inactive)
same,GI50,OVCAR-5,48.3 µM (inactive)
same,GI50,OVCAR-8,24.2 µM (inactive)
same,GI50,RPMI-8226,32.3 µM (inactive)
same,GI50,RXF 393,16.7 µM (inactive)
same,GI50,SF-268,6.53 µM (inactive)
same,GI50,SF-295,50.9 µM (inactive)
same,GI50,SF-539,13 µM (inactive)
same,GI50,SK-MEL-28,30.8 µM (inactive)
same,GI50,SK-MEL-2,12.8 µM (inactive)
same,GI50,SK-MEL-5,35.8 µM (inactive)
same,GI50,SK-OV-3,> 100 µM (inactive)
same,GI50,SN12C,45.9 µM (inactive)
same,GI50,SNB-19,12.7 µM (inactive)
same,GI50,SNB-75,69.3 µM (inactive)
same,GI50,SNB-78,96.6 µM (inactive)
same,GI50,SW-620,31.8 µM (inactive)
same,GI50,TK-10,> 100 µM (inactive)
same,GI50,U-251,19.3 µM (inactive)
same,GI50,UACC-257,1.49 µM (inactive)
same,GI50,UACC-62,7.03 µM (inactive)
same,GI50,UO-31,4.83 µM (inactive)
same,GI50,XF498,56.4 µM (inactive)
C#C[C@]1(O)CCC2C3CCc4cc(Oc5nc(F)nc(-c6c7cc8ccccc8cc7c7n6CCS7)n5)ccc4C3CCC21C (stereo partly specified),GI50,786-0,51.8 µM (inactive)
same,GI50,A549,41.3 µM (inactive)
same,GI50,ACHN,> 100 µM (inactive)
same,GI50,CCRF-CEM,49.3 µM (inactive)
same,GI50,COLO 205,20.6 µM (inactive)
same,GI50,DLD-1,54.6 µM (inactive)
same,GI50,DMS-114,21.5 µM (inactive)
same,GI50,DMS-273,23.8 µM (inactive)
same,GI50,EKVX,11.4 µM (inactive)
same,GI50,HCC 2998,85.5 µM (inactive)
same,GI50,HCT-116,33 µM (inactive)
same,GI50,HL-60,36.7 µM (inactive)
same,GI50,HOP-18,> 100 µM (inactive)
same,GI50,HOP-62,43.3 µM (inactive)
same,GI50,HOP-92,> 100 µM (inactive)
same,GI50,HT-29,26.2 µM (inactive)
same,GI50,IGROV-1,50.7 µM (inactive)
same,GI50,K562,37.7 µM (inactive)
same,GI50,KM-20L2,32.7 µM (inactive)
same,GI50,KM12,33.1 µM (inactive)
same,GI50,LOX IMVI,43 µM (inactive)
same,GI50,LXFL 529,39.5 µM (inactive)
same,GI50,M14,29.2 µM (inactive)
same,GI50,M19-MEL,30.3 µM (inactive)
same,GI50,MOLT-4,49.8 µM (inactive)
same,GI50,Malme-3M,53.6 µM (inactive)
same,GI50,NCI-H226,> 100 µM (inactive)
same,GI50,NCI-H23,54.1 µM (inactive)
same,GI50,NCI-H460,33.1 µM (inactive)
same,GI50,NCI-H522,21.3 µM (inactive)
same,GI50,OVCAR-3,44.7 µM (inactive)
same,GI50,OVCAR-8,53.8 µM (inactive)
same,GI50,RPMI-8226,41.5 µM (inactive)
same,GI50,RXF 393,28.1 µM (inactive)
same,GI50,SF-268,56.9 µM (inactive)
same,GI50,SF-295,34 µM (inactive)
same,GI50,SF-539,30.1 µM (inactive)
same,GI50,SK-MEL-28,48.9 µM (inactive)
same,GI50,SK-MEL-2,28.8 µM (inactive)
same,GI50,SK-MEL-5,25.4 µM (inactive)
same,GI50,SK-OV-3,45.4 µM (inactive)
same,GI50,SN12C,41.5 µM (inactive)
same,GI50,SNB-19,> 100 µM (inactive)
same,GI50,SNB-75,32.9 µM (inactive)
same,GI50,SNB-78,> 100 µM (inactive)
same,GI50,SW-620,44.3 µM (inactive)
same,GI50,TK-10,71.3 µM (inactive)
same,GI50,U-251,39.4 µM (inactive)
same,GI50,UACC-257,77.6 µM (inactive)
same,GI50,UACC-62,20.8 µM (inactive)
same,GI50,UO-31,> 100 µM (inactive)
same,GI50,XF498,> 100 µM (inactive)
Cc1nc([N+](=O)[O-])cn1CC(=N)N,GI50,786-0,> 100 µM (inactive)
same,GI50,A498,> 100 µM (inactive)
same,GI50,A549,> 100 µM (inactive)
same,GI50,ACHN,> 100 µM (inactive)
same,GI50,CCRF-CEM,> 100 µM (inactive)
same,GI50,COLO 205,> 100 µM (inactive)
same,GI50,DLD-1,> 100 µM (inactive)
same,GI50,DMS-114,> 100 µM (inactive)
same,GI50,DMS-273,> 100 µM (inactive)
same,GI50,EKVX,> 100 µM (inactive)
same,GI50,HCC 2998,> 100 µM (inactive)
same,GI50,HCT-116,> 100 µM (inactive)
same,GI50,HCT-15,> 100 µM
same,GI50,HL-60,> 100 µM (inactive)
same,GI50,HOP-62,> 100 µM (inactive)
same,GI50,HT-29,> 100 µM (inactive)
same,GI50,IGROV-1,> 100 µM (inactive)
same,GI50,K562,> 100 µM (inactive)
same,GI50,KM-20L2,> 100 µM (inactive)
same,GI50,LOX IMVI,> 100 µM (inactive)
same,GI50,LXFL 529,> 100 µM (inactive)
same,GI50,M14,> 100 µM (inactive)
same,GI50,M19-MEL,> 100 µM (inactive)
same,GI50,MOLT-4,> 100 µM (inactive)
same,GI50,Malme-3M,> 100 µM (inactive)
same,GI50,NCI-H226,> 100 µM (inactive)
same,GI50,NCI-H23,> 100 µM (inactive)
same,GI50,NCI-H460,> 100 µM (inactive)
same,GI50,OVCAR-3,> 100 µM (inactive)
same,GI50,OVCAR-4,> 100 µM (inactive)
same,GI50,OVCAR-8,> 100 µM (inactive)
same,GI50,RPMI-8226,> 100 µM (inactive)
same,GI50,RXF 393,> 100 µM (inactive)
same,GI50,RXF 631,> 100 µM (inactive)
same,GI50,SF-268,> 100 µM (inactive)
same,GI50,SF-295,> 100 µM (inactive)
same,GI50,SF-539,> 100 µM (inactive)
same,GI50,SK-MEL-28,> 100 µM (inactive)
same,GI50,SK-MEL-2,> 100 µM (inactive)
same,GI50,SK-MEL-5,> 100 µM (inactive)
same,GI50,SN12C,> 100 µM (inactive)
same,GI50,SNB-19,> 100 µM (inactive)
same,GI50,SNB-75,20.8 µM (inactive)
same,GI50,SR,> 100 µM (inactive)
same,GI50,SW-620,> 100 µM (inactive)
same,GI50,TK-10,> 100 µM (inactive)
same,GI50,U-251,> 100 µM (inactive)
same,GI50,UACC-257,> 100 µM (inactive)
same,GI50,UACC-62,> 100 µM (inactive)
same,GI50,UO-31,> 100 µM (inactive)
